{
  "source": "patent US20110152379A1",
  "about": "“COMPOSITION FOR CONTROL OF AGING AND/OR EXTENSION OF LIFE, CONTAINING DAPSONE AS ACTIVE INGREDIENT” (priority 2008, published 2011)",
  "key": {"C. elegans [1]": {"system": "C. elegans", "assay": "Chemiluminescent of lipofuscin in small intestine of worm", "type": "in vivo", "conditions": "fed on DDS during the whole life and after the adolescence; FIG. 5", "experimental": "The chemiluminescent of C. elegans was taken a photograph by exposing for 800 msec through 525 nm Band-Pass Filter. The size of each photograph was only adjusted by using Adobe Photoshop CS2. For measuring the amount of Chemiluminescent in a small intestine, the brightness of pixels in a certain region was measured by Image J 1.35. At least 30 of C. elegans were measured every day and then the mean and standard error were calculated."}, "ATP": {"system": "ATP", "assay": "Measurement of ATP amount in C. elegans", "type": "in vivo", "conditions": "C. elegans treated with DDS; FIG. 9", "experimental": "The amount of ATP was measured by slightly modifying the method as mentioned above. In order to, analyze the total amount of ATP, C. elegans was cultured by feeding only on PABA or by feeding on PABA and dapsone, and then was washed with S Basal buffer solution (0.1 M NaCl/0.05 M potassium phosphate buffer, pH 6.0) to remove a contaminant and prepare a sample for measuring. The sample was ultimately adjusted to be 100 ul and then froze at −80° C. C. elegans that was frozen was immediately heated for 15 minutes to erupt ATP and then maintained at a cold condition. Since then, the residue of C. elegans was removed by using a centrifuge (at 15,000 g for 5 minutes). The amount of ATP was measured by using the reagent of bioluminescence assay kit CLS II (Roche Molecular Biochemicals) and Luminometer (available from PerkinElmer company). The amount of ATP was standardized with the amount of protein."}, "C. elegans [2]": {"system": "C. elegans", "assay": "Oxidative stress resistance test, survival in 250 mM paraquat", "type": "in vivo", "conditions": "PQ 250 mM; compared with control C. elegans; FIG. 12", "experimental": "C. elegans at 5 days after administrating dapsone for second generations was used for testing an oxidative stress resistance by dapsone. 250 mM of paraquat was dissolved in M9 solution and then 20 C. elegans was immersed into the above solution. The number of living C. elegans was measured per an hour."}, "ceDuox1": {"system": "ceDuox1", "assay": "RT-PCR of ceDuox1 mRNA in worms", "type": "in vivo, C. elegans", "conditions": "worms treated with DDS; FIG. 13", "experimental": "(§1) Total RNA was isolated by using TRI reagent available from MRC Company and first cDNA strain was synthesized by using Oligo-dT and Superscript II Reverse Transcriptase (available from Invitrogen Company). The gene amplification (PCR) was performed by using PCR Master Mix (Genenmed) and as the base sequence of the primer, ceDuox1; 5′-[…]-3′ (Forward Primer) and 5′-[…]-3′ (Reverse Primer), actin 5′-[…]-3′ (Forward Primer) and 5′-[…]-3′ (Reverse Primer) were used."}, "[3]": {"target": "T1, Type I pyruvate kinase of rabbit muscle (Oryctolagus cuniculus, UniProt P11974)", "T1 construct": "purchased Sigma; host or cells: rabbit muscle", "T1 sequence (P11974 whole entry)": "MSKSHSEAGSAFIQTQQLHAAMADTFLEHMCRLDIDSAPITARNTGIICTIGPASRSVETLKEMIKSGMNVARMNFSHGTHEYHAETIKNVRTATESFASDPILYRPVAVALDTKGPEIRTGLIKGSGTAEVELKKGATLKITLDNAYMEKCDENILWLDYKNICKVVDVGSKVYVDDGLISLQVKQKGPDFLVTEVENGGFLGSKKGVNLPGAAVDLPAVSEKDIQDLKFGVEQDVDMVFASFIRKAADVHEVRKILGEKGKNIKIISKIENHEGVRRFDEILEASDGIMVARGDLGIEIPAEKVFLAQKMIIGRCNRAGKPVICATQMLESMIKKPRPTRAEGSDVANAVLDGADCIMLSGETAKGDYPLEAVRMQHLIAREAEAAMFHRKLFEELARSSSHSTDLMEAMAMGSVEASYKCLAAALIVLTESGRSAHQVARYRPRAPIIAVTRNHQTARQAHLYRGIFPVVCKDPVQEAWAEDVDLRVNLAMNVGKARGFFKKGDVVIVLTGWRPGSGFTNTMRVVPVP", "assay": "Pyruvate kinase activity in vitro (LDH-coupled, 340 nm)", "type": "biochemical", "conditions": "DDS added directly along with PK; FIG. 16A", "experimental": "PK activity was analyzed through the decrease degree of absorbance at 340 nm by using the change result from pyruvate and NADH to lactate and NAD by lactate dehydrogenase (LDH). The pyruvate and ATP used for the above process were produced from phosphoenolpyruvate (PEP) and ADP by PK. The analysis in vitro was measured by adding directly DDS along with PK to the above reaction mixture and the analysis in vivo was measured by adding worms that fed on DDS.\nSamples were homogenized by rupturing C. elegans with glass bead Precellys 24 homogenizer, twice for 20 seconds, at 5000 rpm in a 100 mM potassium phosphate buffer, pH 7.6, at 37° C. A CHAPS was added to the homogenized sample to be 1% of the final concentration and then centrifuged at 15000 g for 20 minutes. The measurement of pyruvate kinase(PK) activity was performed at 37° C. by adding 300 uL of the reaction mixture contained 100 mM potassium phosphate buffer at pH 7.6 and 37° C., 100 mM MgSO4, 1.3 mM β-NADH, 5000 units/mL of lactate dehydrogenase (LDH), 2 mM adenosine diphosphate (ADP) and 17 mM phosphoenolpyruvate (PEP) into the sample. The change of oxidation degree of NADH was measured at 340 nm of absorbance. PK 1 unit was defined as the change into 1.0 umole of pyruvate per a minute at pH 7.6 and 37° C. […] Type I pyruvate kinase (Sigma) of rabbit muscle was used for in vitro experiment."}, "autophagy": {"system": "autophagy", "assay": "Autophagy genes RT-PCR and GFP::lgg-1 immune blot in C. elegans", "type": "in vivo", "conditions": "after treating with DDS", "experimental": "All the results are summarized from three independent experiments.\nas §1\nIn addition, the gene related to the autophagy used the primer as follows: […]"}, "SOD2": {"system": "SOD2", "assay": "Western blot of SOD2 amount in human diploid fibroblast", "type": "cell-based", "conditions": "various concentrations of DDS, FIG. 25B", "experimental": "Trolox that is well known as a water-soluble vitamin E was used as a positive control.\nThe isolated sample was transferred to a nitrocellulose and analyzed through Western Blot using MS601 (Total OXPHOS Complexes Detection Kit, MitoSciences, containing antibodies against SDH30 subunit of complex II (5 μg/ml), Core2 subunit of complex III (0.2 μg/ml), COXII subunit of complex IV (2 μg/ml), and subunit α of F1-ATPase of complex V (0.2 μg/ml)), PCKpan-p, PCKα/β-p, PKCδ-p (Phospho-PKC antibody Sampler Kit, Cell Signaling Technology), PKC α, PCKβ, PKCδ (Life Technologies), β-Actin (Sigma), and the like. The measurement was performed by using a horseradish […] secondary antibodies (Zymed) and ECL (Pierce). The results were shown through visualizing by using Autoradiographic film (Image Reader, LAS-3000Fujifilm, Japan)."}, "human diploid fibroblast": {"system": "human diploid fibroblast", "assay": "Growth suppression of human diploid fibroblast by DDS (data not shown)", "type": "cell-based", "conditions": "read-out: DDS concentration that can suppress 50% growth of human diploid fibroblast (1050)"}},
  "data": [
    {"smiles": "Nc1ccc(S(=O)(=O)c2ccc(N)cc2)cc1", "note": "[DDS, 4,4′-diaminodiphenylsulfone]", "values": [
      {"measurement": "generation of lipofuscin", "setting": "C. elegans [1]", "value": "delayed for several days"},
      {"measurement": "ATP amount", "setting": "ATP", "value": "decreased"},
      {"measurement": "survival rate in NGM liquid medium containing PQ", "setting": "C. elegans [2]", "value": "significantly increased"},
      {"measurement": "amounts of mRNA of C. elegans NOX, ceDuox", "setting": "ceDuox1", "value": "significantly decreased"},
      {"measurement": "biochemical activity of PK in vitro", "setting": "[3]", "value": "suppresses"},
      {"measurement": "genes relevant to the autophagy, transcription level", "setting": "autophagy; RT-PCR, FIG. 21A", "value": "not changed"},
      {"measurement": "LGG-1 marker protein of the autophagy", "setting": "autophagy; immune blot, FIG. 21B", "value": "not increased"},
      {"measurement": "amount of SOD2", "setting": "SOD2", "value": "decreases"},
      {"measurement": "IC50", "setting": "human diploid fibroblast", "value": "~745", "unit": "µM"}
    ]}
  ]
}
